Results from a compilation of properties of binary mixtures (doi:10.1039/b303735e).

Assay: xn = mol fraction of the nth substance listed
Conditions: 298.15 K, 101.3 kPa

Compound CCCC[n+]1ccn(C)c1.F[B-](F)(F)F + CC#N has a viscosity (x2 = 0) of 110 mPa·s, a viscosity (x2 = 0.0982) of 70.9 mPa·s and a viscosity (x2 = 0.2265) of 40.3 mPa·s. It also gave a viscosity (x2 = 0.3047) of 27.7 mPa·s, a viscosity (x2 = 0.4554) of 13.2 mPa·s and a viscosity (x2 = 0.5059) of 10.22 mPa·s. The viscosity (x2 = 0.5469) was 8.25 mPa·s, the viscosity (x2 = 0.6005) was 6.07 mPa·s and the viscosity (x2 = 0.6441) was 4.58 mPa·s. The viscosity (x2 = 0.6973) was 3.34 mPa·s and the viscosity (x2 = 0.9513) was 0.593 mPa·s.

CCCC[n+]1ccn(C)c1.F[B-](F)(F)F + CCC(C)=O showed a viscosity (x2 = 0) of 110 mPa·s.

CC#N + CCCC[n+]1ccn(C)c1.F[B-](F)(F)F gave a viscosity (x1 = 1) of 0.341 mPa·s.

Work on CCC(C)=O + CCCC[n+]1ccn(C)c1.F[B-](F)(F)F yielded a viscosity (x1 = 0.2004) of 42.2 mPa·s, a viscosity (x1 = 0.3969) of 15.2 mPa·s and a viscosity (x1 = 0.4495) of 11.97 mPa·s. For the same compound, the viscosity (x1 = 0.5) was 9.32 mPa·s, the viscosity (x1 = 0.5521) was 7.13 mPa·s and the viscosity (x1 = 0.6062) was 5.38 mPa·s. It also gave a viscosity (x1 = 0.6545) of 4.1 mPa·s, a viscosity (x1 = 0.8137) of 1.55 mPa·s and a viscosity (x1 = 0.8974) of 0.847 mPa·s. It also gave a viscosity (x1 = 0.9502) of 0.564 mPa·s and a viscosity (x1 = 1) of 0.373 mPa·s.

With ClCCl + CCCC[n+]1ccn(C)c1.F[B-](F)(F)F the viscosity (x1 = 0.199) was 37.2 mPa·s, the viscosity (x1 = 0.2854) was 26.3 mPa·s and the viscosity (x1 = 0.3985) was 17 mPa·s. It also gave a viscosity (x1 = 0.5452) of 10.05 mPa·s, a viscosity (x1 = 0.5958) of 7.69 mPa·s and a viscosity (x1 = 0.6471) of 5.92 mPa·s. It also gave a viscosity (x1 = 0.6958) of 4.6 mPa·s, a viscosity (x1 = 0.8019) of 2.59 mPa·s and a viscosity (x1 = 0.9015) of 1.12 mPa·s. It also gave a viscosity (x1 = 0.9477) of 0.715 mPa·s and a viscosity (x1 = 1) of 0.401 mPa·s.

CCCC[n+]1ccn(C)c1.F[B-](F)(F)F + CN(C)C=O showed a viscosity (x2 = 0) of 110 mPa·s, a viscosity (x2 = 0.2041) of 52.2 mPa·s and a viscosity (x2 = 0.3024) of 32.9 mPa·s. The viscosity (x2 = 0.4061) was 20.8 mPa·s, the viscosity (x2 = 0.4408) was 17.6 mPa·s and the viscosity (x2 = 0.5052) was 12.7 mPa·s. For the same compound, the viscosity (x2 = 0.5459) was 11 mPa·s, the viscosity (x2 = 0.6014) was 7.8 mPa·s and the viscosity (x2 = 0.665) was 6.4 mPa·s. It also gave a viscosity (x2 = 0.701) of 5.04 mPa·s, a viscosity (x2 = 0.8008) of 2.91 mPa·s and a viscosity (x2 = 0.9005) of 1.6 mPa·s. It also gave a viscosity (x2 = 0.947) of 1.19 mPa·s.

With CCCC[n+]1ccn(C)c1.F[B-](F)(F)F + ClCCl the viscosity (x2 = 0) was 110 mPa·s.
